Structures are written as SMILES. Structures can show the parent of a compound that is named as a salt. Where two headings read alike, the source gives them in different places.

The results in this text go back to patent US20250092065A1, “2-(INDAZOL-5-YL)-6-(PIPERIDIN-4-YL)-1,7-NAPHTHYRIDINE DERIVATIVES AND RELATED COMPOUNDS AS MODULATORS FOR SPLICING NUCLEIC ACIDS AND FOR THE TREATMENT OF PROLIFERATIVE DISEASES” (REMIX THERAPEUTICS INC., priority 2022, published 2025).

Data set [1] concerns HTT. Kind of data set: HiBiT protein abundance assay, HTT (K562 HiBiT knock-in). The data set is classed as cell-based, human. To be noted: HiBiT knock-in K562 cells, 24 hours, top dose 10 μM. A digest of the protocol: (§1)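 K562 HiBiT knock-in, 24 h, 37 °C, top 10 μM final, 3-fold ×10, DMSO ≤0.25%. Lytic HiBiT luminescence; PC = parental K562, NC = DMSO; 4PL IC50.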
For data set [2], the system named is MYB. Kind of data set: HiBiT protein abundance assay, MYB (K562 HiBiT knock-in). The data set is classed as cell-based, human. Particulars: HiBiT knock-in K562 cells, 24 hours, top dose 10 μM. A digest of the protocol:
as §1
Background: With HiBiT, luminescence reflects the tagged protein that the partner subunit can reach.

The test system of data set [3] is MYB mRNA. Kind of data set: RT-qPCR splicing assay, MYB mRNA canonical (CJ) and alternative (AJ) junction. Particulars: Homo sapiens; for AC50: MYB alternative junction mRNA, read-out: MYB AJ (increase in AJ mRNA, AC50). Type of data set: cell-based, human. A digest of the protocol: (§2)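 Both isoforms, CJ and AJ, read by qPCR from crude lysates of treated A673 or K562 cells; 24 h, 37 °C, maximum 10 uM. Normalization: housekeeper ΔCt, then DMSO ΔΔCt.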
For orientation: Quantitative PCR measures a nucleic acid by following its amplification.

The subject of data set [4] is K562 cells. Kind of data set: Cell Titer Glo 2.0 cell viability (toxicity) assay, K562. Particulars: 500 cells/well, 72 hours.
Data set [5] deals with SMN2 mRNA. Kind of data set: RT-qPCR splicing assay, SMN2 mRNA. The data set is classed as cell-based, human. To be noted: Homo sapiens, canonical junction qPCR panel, Table 4; read-out: SMN2 IC50 (decrease in CJ mRNA levels). The method, boiled down:
as §2

Where [6] appears, read: MYB canonical junction mRNA, RT-qPCR, read-out: MYB CJ (decrease in CJ mRNA levels, IC50).
[7] abbreviates: canonical junction qPCR panel, Table 4, read-out: MYB IC50 (decrease in CJ mRNA levels).

On to `CNC(=O)c1nc(-c2cc3cn(C)nc3c(C)c2O)nc2ccc(N3CC[C@@H](NC)C3)cc12` [Compound 536, 2-(6-hydroxy-2,7-dimethylindazol-5-yl)-N-methyl-6-[(3R)-3-(methylamino)pyrrolidin-1-yl]quinazoline-4-carboxamide], for which the IC50 in data set [1], in data set [2], in data set [3] (setting [6]), in data set [3] (setting [7]) and in data set [5] was less than 100 nM in each case. For the same compound, in data set [3] (RT-qPCR), the AC50 (as a rule, the midpoint of the concentration-response curve, whichever way the signal moves) was less than 100 nM. Also, in data set [4], the “Effect of Exemplary Compounds on Cell Viability, K562” value (“Effect of Exemplary Compounds” below) was “A (A represents <100 nM)”.

For the compound `CNC(=O)c1nc(-c2cc3cn(C)nc3c(C)c2O)nc2ccc(N3CC[C@H](NC)C3)cc12` [Compound 537, 2-(6-hydroxy-2,7-dimethylindazol-5-yl)-N-methyl-6-[(3S)-3-(methylamino)pyrrolidin-1-yl]quinazoline-4-carboxamide], the IC50 in data set [1], in data set [2], in data set [3] (setting [6]), in data set [3] (setting [7]) and in data set [5] was less than 100 nM in each case. In addition, the half-maximal activity concentration (AC50) in data set [3] (RT-qPCR) is less than 100 nM. Besides, the “Effect of Exemplary Compounds” value in data set [4] is on record as “A (A represents <100 nM)”.

In the case of `Cc1c(O)c(-c2nc(-c3c[nH]nn3)c3cc(N4CCNCC4)ccc3n2)cc2cn(C)nc12` [Compound 538, 2,7-dimethyl-5-[6-(piperazin-1-yl)-4-(1H-1,2,3-triazol-4-yl)quinazolin-2-yl]indazol-6-ol hydrochloride], the half-inhibitory concentration (IC50) (in general, the concentration that inhibits the measured activity by half) is 1000 to 10000 nM in data set [1]; 1000 to 10000 nM in data set [2]; 1000 to 10000 nM in data set [3] (setting [6]); 1000 to 10000 nM in data set [3] (setting [7]); 100 to 1000 nM in data set [5]. Besides, the AC50 in data set [3] (RT-qPCR) is 1000 to 10000 nM. Also, in data set [4], the “Effect of Exemplary Compounds” value is given as “C (C represents 1000-9999 nM)”.

Consider `Cc1c(O)c(-c2nc(C(=O)NC(C)C)c3cc(N4C[C@@H](C)N[C@@H](C)C4)ccc3n2)cc2cn(C)nc12` [Compound 539, 6-[(3R,5S)-3,5-dimethylpiperazin-1-yl]-2-(6-hydroxy-2,7-dimethylindazol-5-yl)-N-isopropylquinazoline-4-carboxamide], for which the half-maximal inhibitory concentration (IC50) in data set [1], in data set [2], in data set [3] (setting [6]), in data set [3] (setting [7]) and in data set [5] was less than 100 nM in each case. Moreover, in data set [3] (RT-qPCR), the AC50 is less than 100 nM. Moreover, the “Effect of Exemplary Compounds” value in data set [4] is “A (A represents <100 nM)”.

As to `Cc1c(O)c(-c2nc(C(=O)NC3CCC3)c3cc(N4C[C@@H](C)N[C@@H](C)C4)ccc3n2)cc2cn(C)nc12` [Compound 540], the IC50 was 100 to 1000 nM in data set [1]; less than 100 nM in data set [2]; less than 100 nM in data set [3] (setting [6]); less than 100 nM in data set [3] (setting [7]); less than 100 nM in data set [5]. The AC50 in data set [3] (RT-qPCR) is less than 100 nM. For the same compound, the “Effect of Exemplary Compounds” value in data set [4] is reported as “A (A represents <100 nM)”.

For `Cc1c(O)c(-c2nc(-c3nn[nH]n3)c3cc(N4CCNCC4)ccc3n2)cc2cn(C)nc12` [Compound 541, 2,7-dimethyl-5-[6-(piperazin-1-yl)-4-(2H-1,2,3,4-tetrazol-5-yl)quinazolin-2-yl]indazol-6-ol], the concentration for half-maximal inhibition (IC50) in data set [1] was greater than 10000 nM; in data set [2] it was greater than 10000 nM; in data set [3] (setting [6]) it was 1000 to 10000 nM; in data set [3] (setting [7]), 1000 to 10000 nM; in data set [5] it was 1000 to 10000 nM. Moreover, in data set [3] (RT-qPCR), the AC50 lay within 1000 to 10000 nM. Further, the “Effect of Exemplary Compounds” value in data set [4] is given as “C (C represents 1000-9999 nM)”.

For `C[C@@H]1CN(c2ccc3nc(-c4cc5cn(C)nc5c(F)c4O)nc(C4CC4)c3c2)C[C@H](C)N1` [Compound 542, 5-{4-cyclopropyl-6-[(3R,5S)-3,5-dimethylpiperazin-1-yl]quinazolin-2-yl}-7-fluoro-2-methylindazol-6-ol], the IC50 in data set [1] is 1000 to 10000 nM; in data set [2] it was less than 100 nM; in data set [3] (setting [6]), less than 100 nM; in data set [3] (setting [7]) it was less than 100 nM; in data set [5], less than 100 nM. In data set [3] (RT-qPCR), the half-maximal activity concentration (AC50) was less than 100 nM. The “Effect of Exemplary Compounds” value in data set [4] is listed as “B (B represents 100-1000 nM)”.

With `CN[C@@H]1CCN(c2ccc3nc(-c4cc5cn(C)nc5c(F)c4O)nc(C4CC4)c3c2)C1` [Compound 543, 5-{4-cyclopropyl-6-[(3R)-3-(methylamino)pyrrolidin-1-yl]quinazolin-2-yl}-7-fluoro-2-methylindazol-6-ol], the IC50 in data set [1], in data set [2], in data set [3] (setting [6]), in data set [3] (setting [7]) and in data set [5] was less than 100 nM each time. The concentration at half-maximal activity (AC50) in data set [3] (RT-qPCR) is less than 100 nM. Also, the “Effect of Exemplary Compounds” value in data set [4] is “A (A represents <100 nM)”.

With `Cc1cn2cc(-c3ccc4cc(N5C[C@@H](C)N[C@@H](C)C5)cc(F)c4n3)cc(F)c2n1` [Compound 544, 6-[(3R,5S)-3,5-dimethylpiperazin-1-yl]-8-fluoro-2-{8-fluoro-2-methylimidazo[1,2-a]pyridin-6-yl}quinoline], the concentration for half-maximal inhibition (IC50) was 100 to 1000 nM in data set [1]; 100 to 1000 nM in data set [2]; 100 to 1000 nM in data set [3] (setting [6]); 100 to 1000 nM in data set [3] (setting [7]); less than 100 nM in data set [5]. For the same compound, the AC50 in data set [3] (RT-qPCR) is 100 to 1000 nM. Besides, the “Effect of Exemplary Compounds” value in data set [4] is “B (B represents 100-1000 nM)”.

Take `CNC(=O)c1nc(-c2cc3cn(C)nc3c(C)c2O)nc2ccc(N3C[C@H](C)N[C@@H](C)C3)cc12` [Compound 652, 6-[(3S,5S)-3,5-dimethylpiperazin-1-yl]-2-(6-hydroxy-2,7-dimethylindazol-5-yl)-N-methylquinazoline-4-carboxamide]: the IC50 in data set [1], in data set [2], in data set [3] (setting [6]), in data set [3] (setting [7]) and in data set [5] was less than 100 nM throughout. Further, the AC50 in data set [3] (RT-qPCR) is less than 100 nM. For the same compound, the “Effect of Exemplary Compounds” value in data set [4] was “A (A represents <100 nM)”.

Regarding `Cc1c(O)c(-c2ncc3cc(N4C[C@H](C)N[C@@H](C)C4)ccc3n2)cc2cn(C)nc12` [Compound 660, 5-{6-[(3S,5S)-3,5-dimethylpiperazin-1-yl]quinazolin-2-yl}-2,7-dimethylindazol-6-ol], the 50% inhibitory concentration (IC50) in data set [1] is 100 to 1000 nM; in data set [2], less than 100 nM; in data set [3] (setting [6]), less than 100 nM; in data set [3] (setting [7]), less than 100 nM; in data set [5], less than 100 nM. Besides, the concentration at half-maximal activity (AC50) in data set [3] (RT-qPCR) was less than 100 nM. Besides, in data set [4], the “Effect of Exemplary Compounds” value is given as “A (A represents <100 nM)”.

With `CNC(=O)c1nc(-c2cc3cn(C)nc3c(C)c2O)nc2ccc(N3CCC(N4CCC4)CC3)cc12` [Compound 706], the half-inhibitory concentration (IC50) was 100 to 1000 nM in data set [1]; less than 100 nM in data set [2]; less than 100 nM in data set [3] (setting [6]); less than 100 nM in data set [3] (setting [7]); less than 100 nM in data set [5]. For the same compound, in data set [3] (RT-qPCR), the AC50 was less than 100 nM. For the same compound, in data set [4], the “Effect of Exemplary Compounds” value is on record as “A (A represents <100 nM)”.

For the compound `C[C@@H]1CN(c2ccc3nc(-c4cc5cn(C)nc5c(F)c4O)nc(C#N)c3c2)C[C@H](C)N1` [Compound 707, 6-[(3R,5S)-3,5-dimethylpiperazin-1-yl]-2-(7-fluoro-6-hydroxy-2-methylindazol-5-yl) quinazoline-4-carbonitrile], the 50% inhibitory concentration (IC50) in data set [1] is 100 to 1000 nM; in data set [2], less than 100 nM; in data set [3] (setting [6]), less than 100 nM; in data set [3] (setting [7]), less than 100 nM; in data set [5], less than 100 nM. Moreover, the AC50 in data set [3] (RT-qPCR) was less than 100 nM. Moreover, the “Effect of Exemplary Compounds” value in data set [4] is “A (A represents <100 nM)”.

Turning to `C[C@@H]1CN(c2ccc3nc(-c4cc5cn(C)nc5c(F)c4O)nc(C(N)=O)c3c2)C[C@H](C)N1` [Compound 712, 6-[(3R,5S)-3,5-dimethylpiperazin-1-yl]-2-(7-fluoro-6-hydroxy-2-methylindazol-5-yl) quinazoline-4-carboxamide], the IC50 in data set [1] is 100 to 1000 nM; in data set [2], less than 100 nM; in data set [3] (setting [6]), less than 100 nM; in data set [3] (setting [7]), less than 100 nM; in data set [5], less than 100 nM. Besides, the AC50 in data set [3] (RT-qPCR) was less than 100 nM. Further, in data set [4], the “Effect of Exemplary Compounds” value is reported as “A (A represents <100 nM)”.

On to `CC(=O)c1nc(-c2cc3cn(C)nc3c(F)c2O)nc2ccc(N3C[C@@H](C)N[C@@H](C)C3)cc12` [Compound 717, 1-{6-[(3R,5S)-3,5-dimethylpiperazin-1-yl]-2-(7-fluoro-6-hydroxy-2-methylindazol-5-yl)quinazolin-4-yl}ethanone], for which the half-inhibitory concentration (IC50) was 100 to 1000 nM in data set [1]; less than 100 nM in data set [2]; less than 100 nM in data set [3] (setting [6]); less than 100 nM in data set [3] (setting [7]); less than 100 nM in data set [5]. For the same compound, the AC50 in data set [3] (RT-qPCR) was less than 100 nM. In addition, in data set [4], the “Effect of Exemplary Compounds” value is “A (A represents <100 nM)”.

For the compound `CNC(=O)c1nc(-c2cc3cn(C)nc3c(F)c2O)nc2ccc(N3CCC(N4CCC4)CC3)cc12` [Compound 722, 6-[4-(azetidin-1-yl)piperidin-1-yl]-2-(7-fluoro-6-hydroxy-2-methylindazol-5-yl)-N-methylquinazoline-4-carboxamide], the concentration for half-maximal inhibition (IC50) in data set [1], in data set [2], in data set [3] (setting [6]), in data set [3] (setting [7]) and in data set [5] was less than 100 nM in each case. The AC50 in data set [3] (RT-qPCR) was less than 100 nM. Further, the “Effect of Exemplary Compounds” value in data set [4] is “A (A represents <100 nM)”.
